Results from patent US20220411372A1, “SMALL-MOLECULE INHIBITORS FOR THE B-CATENIN/B-CELL LYMPHOMA 9 PROTEIN-PROTEIN INTERACTION” (H. Lee Moffitt Cancer Center and Research Institute, Inc., priority 2019, published 2022).
Read-outs that look alike come from different tables or passages of the source.

Target: T1, β-catenin/BCL9 PPI (Homo sapiens, UniProt P35222)
T1 construct: Full-length β-catenin (residues 1-781) were cloned into a pET-28b vector; made in house; host or cells: E. coli BL21 DE3 (β-catenin); BCL9 peptide synthesized by InnoPep Inc
T1 sequence (P35222 1-781): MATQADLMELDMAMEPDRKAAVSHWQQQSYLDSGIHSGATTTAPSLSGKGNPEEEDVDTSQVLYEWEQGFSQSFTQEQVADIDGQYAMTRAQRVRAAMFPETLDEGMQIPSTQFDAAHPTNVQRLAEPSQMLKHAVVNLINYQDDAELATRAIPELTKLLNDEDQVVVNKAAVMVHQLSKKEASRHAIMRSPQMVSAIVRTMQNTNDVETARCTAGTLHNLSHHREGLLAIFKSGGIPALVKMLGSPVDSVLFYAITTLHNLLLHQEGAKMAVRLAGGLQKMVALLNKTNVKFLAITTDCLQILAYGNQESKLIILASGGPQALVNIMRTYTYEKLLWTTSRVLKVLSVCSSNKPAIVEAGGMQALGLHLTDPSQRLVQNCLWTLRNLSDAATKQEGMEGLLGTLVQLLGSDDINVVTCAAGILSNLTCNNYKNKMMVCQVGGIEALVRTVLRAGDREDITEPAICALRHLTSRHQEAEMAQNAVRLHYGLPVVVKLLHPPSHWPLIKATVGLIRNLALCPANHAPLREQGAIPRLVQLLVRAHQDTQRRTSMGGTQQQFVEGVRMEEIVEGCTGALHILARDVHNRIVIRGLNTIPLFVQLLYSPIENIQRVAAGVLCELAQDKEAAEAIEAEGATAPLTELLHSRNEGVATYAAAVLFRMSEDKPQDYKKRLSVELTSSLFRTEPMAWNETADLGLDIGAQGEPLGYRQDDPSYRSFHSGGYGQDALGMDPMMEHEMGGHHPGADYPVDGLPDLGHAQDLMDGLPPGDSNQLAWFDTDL
Assay: AlphaScreen competitive inhibition assay of the β-catenin/BCL9 PPI
Type: binding
How it was run: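 5 nM biotinylated BCL9 and 40 nM His6-β-catenin preincubated 30 min at 4° C in pH 7.4 Hepes buffer with 0.01% Triton X-100, 0.1% BSA, 1% DMSO; inhibitor added 1 h at 4° C, then 10 μg/mL donor/acceptor beads 1 h.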

[1] = Table 3, inhibitors 27-43, read-out: Ki
[2] = Table 2, inhibitors 15-26, read-out: Ki

CC(C)(Oc1cccc(N2CCC[C@@H](C(=O)N(Cc3ccc(-c4cn[nH]c4)cc3)C3CC3)C2)c1)C(=O)N1CCC2(CNC2)C1 [Compound 61, (R)-6-(2-(3-(3-((4-(1H-pyrazol-4-yl)benzyl)(cyclopropyl)carbamoyl)piperidin-1-yl)phenoxy)-2-methylpropanoyl)-2,6-diazaspiro[3.4]octan-2-ium 2,2,2-trifluoroacetate]
Ki (Table 5, inhibitors 54-62, read-out: Ki): < 30 µM

Cc1n[nH]c(C)c1-c1ccc(CN(C(=O)[C@@H]2CCCN(c3cccc(OC(C)(C)C(=O)N4CCNCC4)c3)C2)C2CC2)cc1 [Compound 40, (R)-4-(2-(3-(3-(cyclopropyl(4-(3,5-dimethyl-1H-pyrazol-4-yl)benzyl)carbamoyl)piperidin-1-yl)phenoxy)-2-methylpropanoyl)piperazin-1-ium chloride]
Ki [1]: < 10 µM

CC(C)c1ccc(CNC(=O)C2CCCN(c3cccc(OC(C)(C)C(=O)O)c3)C2)cc1 (racemic) [Compound 93, 2-(3-(3-((4-isopropylbenzyl)carbamoyl)piperidin-1-yl)phenoxy)-2-methylpropanoic acid]
Ki (Table 9, inhibitors 93-98, racemic, read-out: Ki): ≤ 90 µM

COC(=O)C(C)(C)Oc1cccc(N2CCCC(C(=O)N(Cc3ccc(-c4cccs4)cc3)C3CC3)C2)c1 (racemic) [Compound 107, methyl 2-(3-(3-(cyclopropyl(4-(thiophen-2-yl)benzyl)carbamoyl)piperidin-1-yl)phenoxy)-2-methylpropanoate]
Ki (Table 11, inhibitors 107-108, racemic, read-out: Ki ± SD): > 90 µM

CC(C)c1ccc(CN(C)C(=O)[C@@H]2CCCN(c3cccc(OC(C)(C)C(=O)N4CCNCC4)c3)C2)cc1 [Compound 19, (R)-4-(2-(3-(3-((4-isopropylbenzyl)(methyl)carbamoyl)piperidin-1-yl)phenoxy)-2-methylpropanoyl)piperazin-1-ium chloride]
Ki [2]: ≤ 30 µM

CC(C)c1ccc(CN(C(=O)[C@@H]2CCCN(c3cccc(OC(C)(C)C(=O)N4CCNCC4)c3)C2)C(C)C)cc1 [Compound 23, (R)-4-(2-(3-(3-(isopropyl(4-isopropylbenzyl)carbamoyl)piperidin-1-yl)phenoxy)-2-methylpropanoyl)piperazin-1-ium chloride]
Ki [2]: ≤ 10 µM

CC(C)(Oc1cccc(N2CCCC(C(=O)N(Cc3ccc(-c4cn[nH]c4)cc3)C3CC3)C2)c1)C(=O)O (racemic) [Compound 99, 2-(3-(3-((4-(1H-pyrazol-4-yl)benzyl)(cyclopropyl)carbamoyl)piperidin-1-yl)phenoxy)-2-methylpropanoic acid]
Ki (Table 10, inhibitors 99-106, racemic, read-out: Ki ± SD): > 90 µM

CC(C)c1ccc(CN(C(=O)[C@H]2CCCN(c3cccc(OC(C)(C)C(=O)O)c3)C2)C2CC2)cc1 [Compound 12, (S)-2-(3-(3-(cyclopropyl(4-isopropylbenzyl)carbamoyl)piperidin-1-yl)phenoxy)-2-methylpropanoic acid]
Ki (Table 1, inhibitors 1-14, read-out: Ki): > 90 µM

CCCOc1cc(-c2cn[nH]c2)ccc1CN(C(=O)[C@@H]1CCCN(c2cccc(OC(C)(C)C(=O)N3CCNCC3)c2)C1)C1CC1 [Compound 111, (R)-4-(2-(3-(3-(Cyclopropyl(2-propoxy-4-(1H-pyrazol-4-yl)benzyl)carbamoyl)piperidin-1-yl)phenoxy)-2-methylpropanoyl)piperazin-1-ium chloride]
Ki (Table 12, inhibitors 109-112, read-out: Ki): ≤ 30 µM

CC(C)(Oc1cccc(N2CCC[C@@H](C(=O)N(Cc3ccc(-c4cn[nH]c4)cc3)C3CCC3)C2)c1)C(=O)N1CCNCC1 [Compound 49, (R)-4-(2-(3-(3-((4-(1H-pyrazol-4-yl)benzyl)(cyclobutyl)carbamoyl)piperidin-1-yl)phenoxy)-2-methylpropanoyl)piperazin-1-ium chloride]
Ki (Table 4, right half, inhibitors 49-53, read-out: Ki ± SD): < 30 µM

CC(C)c1ccc(CN(C(=O)[C@@H]2CCCN(c3cccc(OC(C)(C)C(=O)N4CCNCC4)c3)C2)C2CC2)cc1 [Compound 25, (R)-4-(2-(3-(3-(cyclopropyl(4-isopropylbenzyl)carbamoyl)piperidin-1-yl)phenoxy)-2-methylpropanoyl)piperazin-1-ium chloride]
Ki [2]: ≤ 5 µM

Cn1cc(-c2ccc(CN(C(=O)[C@@H]3CCCN(c4cccc(OC(C)(C)C(=O)N5CCNCC5)c4)C3)C3CC3)cc2)cn1 [Compound 38, (R)-4-(2-(3-(3-(cyclopropyl(4-(1-methyl-11/-pyrazol-4-yl)benzyl)carbamoyl)piperidin-1-yl)phenoxy)-2-methylpropanoyl)piperazin-1-ium chloride]
Ki [1]: ≤ 90 µM
